In patent US7595401B2, “Therapeutic compounds and their use in cancer” (Myriad Pharmaceuticals, Inc., priority 2006, dated 2009):

Test system: purified human Hsp90
Experiment: Binding Assay: fluorescence polarization with BODIPY-labeled geldanamycin
Settings: 5 μM compound, BODIPY-GM 10 nM, Hsp90 30 nM
In short: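 Fluorescence polarization competition with BODIPY-geldanamycin (10 nM final) and human Hsp90 (30 nM final) in HEPES-KOH pH 7.3 buffer with molybdate, NP-40, DTT; 2% DMSO, overnight at room temperature. Read 485/530 nm; percent inhibition from mP normalized to DMSO controls, fluorescent-compound points excluded.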

Row | Structure (SMILES) | % Inhibition at 5 μM Compound Concentration
1 | Nc1ncnc2c1nc(Sc1ccc3c(c1)OCO3)n2CCCn1cccc1 [Example 51, 8-(Benzo[1,3]dioxol-5-ylsulfanyl)-9-(3-pyrrol-1-yl-propyl)-9H-purin-6-ylamine] | 52%
2 | CC(=O)N1CCC(CCn2cnc(N)c3nc(Sc4nc5ccc([N+](=O)[O-])cc5s4)nc2-3)CC1 [Example 652, 3-[2-(1-Acetylpiperidin-4-yl)ethyl]-8-[(6-nitro-1,3-benzothiazol-2-yl)thio]-3H-purin-6-amine] | 0.00%
3 | Nc1ncnc2c1nc(Sc1cc(OC(F)(F)F)ccc1OC1CCCC1)n2CCc1ccccc1Cl [Example 329, 9-[2-(2-Chlorophenyl)ethyl]-8-{[2-(cyclopentyloxy)-5-(trifluoromethoxy)phenyl]thio}-9H-purin-6-amine] | 25.0%

Same assay, conditions: BODIPY-GM 10 nM, Hsp90 30 nM

Row | Structure (SMILES) | IC50
4 | CO[C@@H](C)C(=O)N1CCC(CCn2c(Sc3cc4c(cc3Br)OCO4)nc3c(N)ncnc32)CC1 [Example 724, 8-[(6-Bromo-1,3-benzodioxol-5-yl)thio]-9-(2-{1-[(2S)-2-methoxypropanoyl]piperidin-4-yl}ethyl)-9H-purin-6-amine] | 105 nM
5 | CCCCNC(=O)Nc1ccc(CCn2c(Sc3cc(OC)ccc3OC)nc3c(N)ncnc32)cc1 [Example 277, N-[4-(2-{6-Amino-8-[(2,5-dimethoxyphenyl)thio]-9H-purin-9-yl}ethyl)phenyl]-N′-butylurea] | > 8000 nM
6 | COc1ccc(OC)c(Sc2nc3c(N)ncn(CCc4ccccc4OC)c-3n2)c1 [Example 86, 8-(2,5-dimethoxy-phenylsulfanyl)-3-[2-(2-methoxy-phenyl)-ethyl]-3H-purin-6-ylamine] | > 5000 nM
7 | Nc1ncnc2c1nc(Sc1ccc3c(c1)OCO3)n2CCCn1cccc1 [Example 51, 8-(Benzo[1,3]dioxol-5-ylsulfanyl)-9-(3-pyrrol-1-yl-propyl)-9H-purin-6-ylamine] | 1500 nM
8 | N#CC1CCN(CCn2c(Sc3cc4c(cc3Br)OCO4)nc3c(N)ncnc32)CC1 [Example 575, 1-(2-{6-Amino-8-[(6-bromo-1,3-benzodioxol-5-yl)thio]-9 H-purin-9-yl}ethyl)piperidine-4-carbonitrile] | 800 nM
9 | Nc1ncnc2c1nc(Sc1cc3c(cc1Br)OCO3)n2CCN1CCN(C2CCCC2)CC1 [Example 632, 8-[(6-Bromo-1,3-benzodioxol-5-yl)thio]-9-[2-(4-cyclopentylpiperazin-1-yl)ethyl]-9 H-purin-6-amine] | > 3000 nM
10 | CC(C)(C)OC(=O)N1CCC[C@H]1C(=O)N1CCC(CCn2c(Sc3cc4c(cc3Br)OCO4)nc3c(N)ncnc32)CC1 [Example 730, tert-Butyl(2S)-2-{[4-(2-{6-amino-8-[(6-bromo-1,3-benzodioxol-5-yl)thio]-9H-purin-9-yl}ethyl)piperidin-1-yl]carbonyl}pyrrolidine-1-carboxylate] | > 5000 nM
11 | CC(=O)N1CCC[C@H]1C(=O)N1CCC(CCn2c(Sc3cc4c(cc3Br)OCO4)nc3c(N)ncnc32)CC1 [Example 776, 9-{2-[1-(1-Acetyl-L-prolyl)piperidin-4-yl]ethyl}-8-[(6-bromo-1,3-benzodioxol-5-yl)thio]-9H-purin-6-amine] | 310 nM
12 | CC(C)(C)OC(=O)N1CCC(=CCn2c(Sc3cc4c(cc3Br)OCO4)nc3c(N)ncnc32)CC1 [Example 390, tert-Butyl 4-(2-{6-amino-8-[(6-bromo-1,3-benzodioxol-5-yl)thio]-9H-purin-9-yl}ethylidene)piperidine-1-carboxylate] | 310 nM
13 | CC(C)(C)n1nnnc1N1CCC(CCn2c(Sc3cc4c(cc3Br)OCO4)nc3c(N)ncnc32)CC1 [Example 614, 8-[(6-Bromo-1,3-benzodioxol-5-yl)thio]-9-{2-[1-(1-tert-butyl-1 H-tetrazol-5-yl)piperidin-4-yl]ethyl}-9 H-purin-6-amine] | 1800 nM
14 | CC(C)(C)OC(=O)NC(CCn1c(Sc2cc3c(cc2Br)OCO3)nc2c(N)ncnc21)C1CC1 (centres unmarked) [Example 662, tert-Butyl (3-{6-amino-8-[(6-bromo-1,3-benzodioxol-5-yl)thio]-9H-purin-9-yl}-1-cyclopropylpropyl)carbamate] | 300 nM
